In US7390812B2, “N, N'-disubstituted piperazine compounds and their use as analgesics” (Gruenenthal GmbH, priority 2001, dated 2008):

Key:
[1] = test system: binding site 2 of the sodium channel; experiment: Binding investigations at sodium channel binding site 2 (BTX binding); conditions: 10 μM; rat cerebrocortex synaptosomes; [3H]-Batrachotoxinin A20 α-benzoate 10 nM; 37° C., 120 min
Protocol: Binding Investigations at Sodium Channel Binding Site 2
Binding site 2 of the sodium channel is the so-called batrachotoxin (BTX) binding site. [^3H]-Batrachotoxinin A20 α-benzoate (10 nM in the batch) was used as ligand. These ion channel particles (synaptosomes) were enriched from rat cerebrocortex after Gray and Whittaker (E. G. Gray and V. P. Whittaker (1962) J. Anat. 76, 79-88). The radioactivity measured in the presence of veratridine (0.3 mM in the batch) is defined as non-specific binding.
The assay conditions were as published by Pauwels, Leysen and Laduron (P. J. Pauwels, J. E. Leysen and P. M. Laduron (1986) Eur. J. Pharmacol. 124, 291-298). Incubation at 37° C. for 120 min.

[2] = biological target: T1, NA transporter (Rattus norvegicus, UniProt Q63380); experiment: Noradrenaline reuptake inhibition (NA uptake inhibition) in synaptosomes; format: biochemical; conditions: synaptosomes from hypothalamus of male rat brains
T1 construct: synaptosomes were freshly isolated from rat brain regions; from tissue; host or cells: rat hypothalamus synaptosomes (P2 fraction)
T1 sequence (Q63380 1-617): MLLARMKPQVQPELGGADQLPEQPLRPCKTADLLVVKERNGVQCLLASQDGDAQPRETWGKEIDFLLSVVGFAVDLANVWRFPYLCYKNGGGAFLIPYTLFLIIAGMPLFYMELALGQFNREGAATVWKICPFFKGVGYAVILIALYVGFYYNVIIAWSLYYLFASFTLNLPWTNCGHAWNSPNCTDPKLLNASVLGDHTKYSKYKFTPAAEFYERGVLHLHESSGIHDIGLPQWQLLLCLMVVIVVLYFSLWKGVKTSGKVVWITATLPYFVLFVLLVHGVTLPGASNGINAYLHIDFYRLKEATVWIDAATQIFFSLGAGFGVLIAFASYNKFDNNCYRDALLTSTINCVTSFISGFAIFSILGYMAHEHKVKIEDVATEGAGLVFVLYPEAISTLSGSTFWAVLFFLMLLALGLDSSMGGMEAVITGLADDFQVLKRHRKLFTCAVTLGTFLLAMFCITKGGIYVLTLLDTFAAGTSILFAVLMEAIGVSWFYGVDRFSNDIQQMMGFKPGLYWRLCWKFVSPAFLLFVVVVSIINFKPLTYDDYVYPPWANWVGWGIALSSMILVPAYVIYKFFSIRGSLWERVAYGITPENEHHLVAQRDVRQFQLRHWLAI
Protocol: In order to be able to carry out these in vitro studies, synaptosomes were freshly isolated from rat brain regions. A so-called “P2” fraction was used, which was prepared according to the instructions given by Gray and Whittaker (E. G. Gray and V. P. Whittaker (1962) J. Anat. 76, 79-88).

| inhibition at 10 µM [2] | SMILES | BTX binding at 10 μM [%] inhibition [1] |
| --- | --- | --- |
| 66% | Cc1cc(C2(O)CCCCCC2CN2CCN(C)CC2)ccc1F (stereo not shown) [1-(4-Fluoro-3-methyl-phenyl)-2-(4-methyl-piperazin-1-ylmethyl)-cycloheptanol] | 69% |
| 44% | Cc1cccc(C2(O)CCCCC2CN2CCN(C)CC2)c1 (stereo not shown) [2-(4-Methyl-piperazin-1-ylmethyl)-1-m-tolyl-cyclohexanol] | 58% |
| 70% | CN1CCN(CC2CCCCCC2(O)c2ccc(Cl)cc2)CC1 (stereo not shown) [1-(4-Chloro-phenyl)-2-(4-methyl-piperazin-1-ylmethyl)-cycloheptanol] | 69% |
| 61% | CN1CCN(CC2CCCCCCC2(O)CCc2ccccc2)CC1 (stereo not shown) [2-(4-Methyl-piperazin-1-ylmethyl)-1-phenethyl-cyclooctanol] | 78% |
| 88% | CCC(O)(CCc1ccccc1)C(C)CN1CCN(C)CC1 (stereo not shown) [3-Ethyl-2-methyl-1-(4-methyl-piperazin-1-yl)-5-phenyl-pentan-3-ol] | 74% |
| 75% | Cc1ccc(C2(O)CCCCC2CN2CCN(C)CC2)cc1 (stereo not shown) [2-(4-Methyl-piperazin-1-ylmethyl)-1-p-tolyl-cyclohexanol] | 53% |
| 71% | CN1CCN(CC2CCCCC2(O)CCc2ccccc2)CC1 (stereo not shown) [2-(4-Methyl-piperazin-1-ylmethyl)-1-phenethyl-cyclohexanol] | 65% |
| 45% | CCC(O)(c1cccs1)C(C)CN1CCN(c2cccc(Cl)c2)CC1 (stereo not shown) [1-[4-(3-Chloro-phenyl)-piperazin-1-yl]-2-methyl-3-thiophen-2-yl-pentan-3-ol] |  |
| 50% | CN1CCN(CC2CCCCCC2(O)c2ccccc2)CC1 (stereo not shown) [2-(4-Methyl-piperazin-1-ylmethyl)-1-phenyl-cycloheptanol] | 63% |
| 55% | CCC(O)(Cc1ccccc1)C(C)CN1CCN(c2cccc(Cl)c2)CC1 (stereo not shown) [3-Benzyl-1-[4-(3-chloro-phenyl)-piperazin-1-yl]-2-methyl-pentan-3-ol] |  |
| 42% | CCC(O)(c1cccc(C)c1)C(C)CN1CCN(c2cccc(Cl)c2)CC1 (stereo not shown) [1-[4-(3-Chloro-phenyl)-piperazin-1-yl]-2-methyl-3-m-tolyl-pentan-3-ol] |  |
| 65% | Cc1cc(C2(O)CCCCC2CN2CCN(C)CC2)ccc1F (stereo not shown) [1-(4-Fluoro-3-methyl-phenyl)-2-(4-methyl-piperazin-1-ylmethyl)-cyclohexanol] | 60% |
| 65% | CCC(O)(c1cccc(C(F)(F)F)c1)C(C)CN1CCN(c2cccc(Cl)c2)CC1 (stereo not shown) [1-[4-(3-Chloro-phenyl)-piperazin-1-yl]-2-methyl-3-(3-trifluoromethyl-phenyl)-pentan-3-ol] |  |
